# Measurements published in ChEMBL document CHEMBL5321272 (J Med Chem, 2023).
# Molecular target: T1, Serine/threonine-protein kinase Chk1 (Homo sapiens, UniProt O14757)
# T1 sequence (O14757 whole entry): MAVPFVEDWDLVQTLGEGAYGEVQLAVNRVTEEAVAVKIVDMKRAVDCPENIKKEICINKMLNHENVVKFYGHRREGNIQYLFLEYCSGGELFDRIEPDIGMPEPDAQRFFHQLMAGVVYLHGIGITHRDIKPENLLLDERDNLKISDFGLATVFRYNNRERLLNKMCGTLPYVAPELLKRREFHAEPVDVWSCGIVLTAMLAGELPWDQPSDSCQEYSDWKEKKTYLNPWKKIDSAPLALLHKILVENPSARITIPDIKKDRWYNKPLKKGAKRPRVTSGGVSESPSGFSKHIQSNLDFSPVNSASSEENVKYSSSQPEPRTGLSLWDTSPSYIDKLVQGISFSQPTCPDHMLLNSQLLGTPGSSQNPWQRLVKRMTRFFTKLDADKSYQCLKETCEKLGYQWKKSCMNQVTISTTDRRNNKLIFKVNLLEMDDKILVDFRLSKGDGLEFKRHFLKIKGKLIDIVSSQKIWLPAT
# Test: not given
# Settings: not given
row,Structure (SMILES),IC50
1,CC(C)(O)CC(=O)N1CCc2cc(Nc3ncc(C(F)(F)F)c(NCCN)n3)ccc2C1,135 nM
2,CC(C)(O)CC(=O)N1CCc2cc(Nc3ncc(C(F)(F)F)c(N[C@H]4CCCNC4)n3)ccc2C1,952 nM
3,CC(C)(N)CCNc1nc(Nc2ccc3c(c2)CCN(C(=O)CC(C)(C)O)C3)ncc1C(F)(F)F,219 nM
4,CC(C)(O)Cn1ccc2cc(Nc3ncc(C(F)(F)F)c(N[C@H]4C[C@H]5CC[C@@H](C4)N5)n3)ccc2c1=O,2020 nM
5,CC(C)(O)Cn1cnc2cc(Nc3ncc(C(F)(F)F)c(N[C@H]4CC[C@@H](N)CC4)n3)ccc2c1=O,206 nM
6,CNCCCNc1nc(Nc2ccc3c(c2)CCN(C(=O)CC(C)(C)O)C3)ncc1C(F)(F)F,61.6 nM
7,CC(C)(O)CC(=O)N1CCc2cc(Nc3ncc(C(F)(F)F)c(N[C@H]4CC[C@@H](NS(C)(=O)=O)CC4)n3)ccc2C1,827 nM
8,CCn1ccc2cc(Nc3ncc(C(F)(F)F)c(N[C@H]4CC[C@@H](N)CC4)n3)ccc2c1=O,26.7 nM
9,CC(C)(O)Cn1ncc2cc(Nc3ncc(C(F)(F)F)c(N[C@H]4CC[C@@H](N)CC4)n3)ccc2c1=O,66.9 nM
10,CC(C)(O)CC(=O)N1CCc2cc(Nc3ncc(C(F)(F)F)c(N[C@H]4CCCC[C@H]4N)n3)ccc2C1,> 10000 nM
11,CC(C)(O)CC(=O)N1CCc2cc(Nc3ncc(C(F)(F)F)c(N[C@@H]4CCCC[C@@H]4N)n3)ccc2C1,1970 nM

# Molecular target: Receptor-type tyrosine-protein kinase FLT3 (Homo sapiens, UniProt P36888, D835Y)
# Test: not given
# Settings: not given
row,Structure (SMILES),IC50
1,CC(C)(O)CC(=O)N1CCc2cc(Nc3ncc(C(F)(F)F)c(NCCN)n3)ccc2C1,38.2 nM
2,CC(C)(O)CC(=O)N1CCc2cc(Nc3ncc(C(F)(F)F)c(N[C@H]4CCCNC4)n3)ccc2C1,311 nM
3,CC(C)(N)CCNc1nc(Nc2ccc3c(c2)CCN(C(=O)CC(C)(C)O)C3)ncc1C(F)(F)F,3.32 nM
4,CC(C)(O)Cn1ccc2cc(Nc3ncc(C(F)(F)F)c(N[C@H]4C[C@H]5CC[C@@H](C4)N5)n3)ccc2c1=O,488 nM
5,CC(C)(O)Cn1cnc2cc(Nc3ncc(C(F)(F)F)c(N[C@H]4CC[C@@H](N)CC4)n3)ccc2c1=O,4.56 nM
6,CNCCCNc1nc(Nc2ccc3c(c2)CCN(C(=O)CC(C)(C)O)C3)ncc1C(F)(F)F,27.3 nM
7,CC(C)(O)CC(=O)N1CCc2cc(Nc3ncc(C(F)(F)F)c(N[C@H]4CC[C@@H](NS(C)(=O)=O)CC4)n3)ccc2C1,3.8 nM
8,CCn1ccc2cc(Nc3ncc(C(F)(F)F)c(N[C@H]4CC[C@@H](N)CC4)n3)ccc2c1=O,1.59 nM
9,CC(C)(O)Cn1ncc2cc(Nc3ncc(C(F)(F)F)c(N[C@H]4CC[C@@H](N)CC4)n3)ccc2c1=O,2.69 nM
10,CC(C)(O)CC(=O)N1CCc2cc(Nc3ncc(C(F)(F)F)c(N[C@H]4CCCC[C@H]4N)n3)ccc2C1,1450 nM
11,CC(C)(O)CC(=O)N1CCc2cc(Nc3ncc(C(F)(F)F)c(N[C@@H]4CCCC[C@@H]4N)n3)ccc2C1,224 nM

# Test system: MV4-11
# Test: cells
# Settings: Homo sapiens, MV4-11, 72 h
# Description: Antiproliferative activity against human MV4-11 cells assessed as reduction in cell viability incubated for 72 hrs by CellTiter 96 Aqueous One Solution Cell Proliferation Assay
row,Structure (SMILES),IC50
1,CC(C)(N)CCNc1nc(Nc2ccc3c(c2)CCN(C(=O)CC(C)(C)O)C3)ncc1C(F)(F)F,0.62 nM
2,CC(C)(O)Cn1ccc2cc(Nc3ncc(C(F)(F)F)c(N[C@H]4C[C@H]5CC[C@@H](C4)N5)n3)ccc2c1=O,> 5000 nM
3,CC(C)(O)Cn1cnc2cc(Nc3ncc(C(F)(F)F)c(N[C@H]4CC[C@@H](N)CC4)n3)ccc2c1=O,1.59 nM
4,CNCCCNc1nc(Nc2ccc3c(c2)CCN(C(=O)CC(C)(C)O)C3)ncc1C(F)(F)F,14.2 nM
5,CC(C)(O)CC(=O)N1CCc2cc(Nc3ncc(C(F)(F)F)c(N[C@H]4CC[C@@H](NS(C)(=O)=O)CC4)n3)ccc2C1,6.21 nM
6,CCn1ccc2cc(Nc3ncc(C(F)(F)F)c(N[C@H]4CC[C@@H](N)CC4)n3)ccc2c1=O,0.99 nM
7,CC(C)(O)Cn1ncc2cc(Nc3ncc(C(F)(F)F)c(N[C@H]4CC[C@@H](N)CC4)n3)ccc2c1=O,1.1 nM

# Molecular target: hERG (KCNH2) (Homo sapiens, UniProt Q12809)
# Sequence (Q12809 whole entry): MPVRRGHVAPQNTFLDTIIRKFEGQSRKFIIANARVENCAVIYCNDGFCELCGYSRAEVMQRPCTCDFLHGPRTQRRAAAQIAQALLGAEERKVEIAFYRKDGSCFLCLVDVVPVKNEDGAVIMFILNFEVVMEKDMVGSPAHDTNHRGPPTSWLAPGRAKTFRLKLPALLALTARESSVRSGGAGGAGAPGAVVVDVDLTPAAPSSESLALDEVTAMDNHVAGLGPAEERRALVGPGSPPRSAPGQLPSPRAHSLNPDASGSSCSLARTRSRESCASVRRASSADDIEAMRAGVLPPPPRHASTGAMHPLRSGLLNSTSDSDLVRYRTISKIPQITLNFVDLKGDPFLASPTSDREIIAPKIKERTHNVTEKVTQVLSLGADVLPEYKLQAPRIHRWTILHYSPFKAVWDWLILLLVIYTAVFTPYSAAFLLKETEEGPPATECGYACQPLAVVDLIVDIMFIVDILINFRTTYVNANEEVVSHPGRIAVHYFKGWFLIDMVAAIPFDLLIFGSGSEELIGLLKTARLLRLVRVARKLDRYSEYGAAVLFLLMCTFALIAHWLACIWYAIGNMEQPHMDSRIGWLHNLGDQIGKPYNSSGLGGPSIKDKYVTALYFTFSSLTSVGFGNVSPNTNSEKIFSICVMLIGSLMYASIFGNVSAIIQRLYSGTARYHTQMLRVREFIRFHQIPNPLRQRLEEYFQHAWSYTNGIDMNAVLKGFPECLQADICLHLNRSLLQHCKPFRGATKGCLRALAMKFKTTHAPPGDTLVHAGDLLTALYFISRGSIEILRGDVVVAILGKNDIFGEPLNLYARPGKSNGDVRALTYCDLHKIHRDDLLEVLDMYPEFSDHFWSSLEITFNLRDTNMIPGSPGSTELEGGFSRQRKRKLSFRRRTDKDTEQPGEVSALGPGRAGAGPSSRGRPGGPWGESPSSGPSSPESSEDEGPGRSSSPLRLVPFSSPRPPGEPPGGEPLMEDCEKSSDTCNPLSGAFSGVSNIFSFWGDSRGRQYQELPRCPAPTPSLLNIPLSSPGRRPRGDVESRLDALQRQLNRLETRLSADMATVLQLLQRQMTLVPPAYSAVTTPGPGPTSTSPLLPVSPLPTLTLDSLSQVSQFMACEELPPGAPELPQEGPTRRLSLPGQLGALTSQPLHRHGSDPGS
# Test: Inhibition of hERG expressed in HEK293 cells at 20 uM by whole cell patch clamp analysis
# Type: toxicity, cell-based
# Settings: HEK293 cells expressing hERG
row,Structure (SMILES),inhibition at 20 µM
1,CC(C)(N)CCNc1nc(Nc2ccc3c(c2)CCN(C(=O)CC(C)(C)O)C3)ncc1C(F)(F)F,31.9%
2,CC(C)(O)Cn1cnc2cc(Nc3ncc(C(F)(F)F)c(N[C@H]4CC[C@@H](N)CC4)n3)ccc2c1=O,6.82%
3,CC(C)(O)Cn1ncc2cc(Nc3ncc(C(F)(F)F)c(N[C@H]4CC[C@@H](N)CC4)n3)ccc2c1=O,48.1%
